By inhibition is commonly meant the percentage by which the read-out fell short of the control. Low values mean little suppression, high ones strong suppression. The term Kb denotes the affinity of an antagonist, worked out from how it opposes an agonist. A lower Kb goes with higher antagonist affinity.

These results are taken from US5393768A, “Leukotriene antagonists” (Eli Lilly and Company, priority 1993, dated 1995).

For test [1], the system named is LTD4 evoked contractions of guinea pig ileum. The test can be described thus: Percent inhibition of LTD4 evoked ileal contractions (single submaximal LTD4 response, 5 minute drug exposure). It is filed as cell-based, guinea pig (male, Hartley). To be noted: Cavia porcellus; for inhibition at 0.01 µM: 5 min, Compound concentration 1 × 10^-8; for inhibition at 0.1 µM: Compound concentration 1 × 10^-7 M; for inhibition at 0.3 µM: Compound concentration 3 × 10^-7 M; for inhibition at 0.03 µM: Compound concentration 3 × 10^-8 M; for inhibition at 1 µM: Compound concentration 1 × 10^-6 M. How it is done:
Male, Hartley guinea pigs weighing 200-450 grams were killed by decapitation. A section of terminal ileum was removed, the lumen cleaned, and the tissue divided into 2.5 cm. segments. The ilea were mounted in 10 ml. tissue baths containing Krebs-bicarbonate solution of the following composition in mmoles/-liter: KCl, 4.6; CaCl2 ·2H2 O, 1.2; KH2 PO4, 1.2; MgSO4 ·7H2 O, 1.2; NaCl, 118.2; NaHCO3, 24.8; and dextrose, 10.0. The bath fluid was maintained at 37° C. and aerated with 95 percent oxygen and 5 percent CO2. In addition, the buffer contained 1×10^-6 M atropine to reduce ileal spontaneous activity. Isometric measurements were made with a Grass FTO3C force-displacement transducer and recorded on a Grass polygraph as change in grams of force. A passive force of 0.5 g. was applied to the tissues. After an appropriate equilibration period, single submaximal control responses to pure LTD4 were obtained. Following a five minute exposure of the ileum to an experimental drug, the control concentration of LTD was added to the tissue bath. The response of the ileum to LTD4 in the presence of the drug was compared to the response in the absence of the drug.

The target of test [2] is T1, LTD4 evoked contractions of guinea pig ileum (Cavia porcellus, UniProt Q2NNR5).
T1 construct: A section of terminal ileum was removed, the lumen cleaned, and the tissue divided into 2.5 cm. segments; from tissue; host or cells: terminal ileum of male Hartley guinea pigs
T1 sequence (Q2NNR5 1-340): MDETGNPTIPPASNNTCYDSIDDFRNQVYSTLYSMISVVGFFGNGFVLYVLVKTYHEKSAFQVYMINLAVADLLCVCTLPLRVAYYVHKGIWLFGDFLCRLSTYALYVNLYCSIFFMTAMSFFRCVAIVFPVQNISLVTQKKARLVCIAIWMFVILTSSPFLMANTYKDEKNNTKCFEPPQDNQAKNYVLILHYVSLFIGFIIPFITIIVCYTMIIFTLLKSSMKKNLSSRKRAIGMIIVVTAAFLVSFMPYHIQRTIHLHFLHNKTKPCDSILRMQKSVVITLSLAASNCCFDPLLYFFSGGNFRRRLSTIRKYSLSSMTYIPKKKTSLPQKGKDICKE
As to the kind of experiment: LTD4 antagonism, cumulative concentration-response curves (Schild pA2). It is filed as cell-based. As to conditions: 30 minute incubation, negative log of KB. The procedure: For some of the drugs in this series a more detailed analysis of LTD4 antagonism was made. In these experiments, cumulative concentration-response curves were obtained to LTD4 in guinea pig ileum and trachea. This was followed by a 30 minute incubation with various concentrations of the experimental drug. The concentration response curve to LTD4 was then repeated in the presence of the antagonist. Only one concentration of antagonist was used on a single tissue. KB values were calculated by the method of Furchgott [Ann. N.Y. Acad. Sci., 139, 553 (1967)] using the following equation. [formula]
Dose ratio refers to the concentration of agonist required to elicit 50 percent of the maximal response (ED50) in the presence of the antagonist divided by the ED50 in the absence of the antagonist. Calculations were performed with the aid of a computer and a digital plotter.

Molecules are shown by their SMILES.

In test [1], `CCCc1c(COc2ccc(-c3nnn[nH]3)c(O)c2)ccc(C(C)=O)c1O` [Example 34, 5-[4-(4-Acetyl-3-hydroxy-2-propylbenzyloxy)-2-hydroxyphenyl]-tetrazole] had an inhibition at 0.01 µM of 50%, an inhibition at 0.1 µM of 97%, an inhibition at 0.3 µM of 98% and an inhibition at 0.03 µM of 80%. The same molecule had an antagonist equilibrium constant (Kb) in test [2] of 8.71 nM.

In test [1], `CCCc1c(COc2ccc(CCc3nnn[nH]3)cc2)ccc(C(C)=O)c1O` [Example 35, 5-[2-(4-[4-Acetyl-3-hydroxy-2-propylbenzyloxy]phenyl)ethyl]-tetrazole] returned an inhibition at 0.1 µM of 84%, an inhibition at 0.3 µM of 90% and an inhibition at 0.03 µM of 63%. Also, in test [2], the Kb is 8.32 nM.

As for `CCCc1c(COc2ccc(C(C)c3nnn[nH]3)cc2)ccc(C(C)=O)c1O` (stereo not drawn) [Example 36, 5-[1-(4-[4-Acetyl-3-hydroxy-2-propylbenzyloxy]phenyl)ethyl]-tetrazole], in test [1], testing at 0.01 µM gave an inhibition of 44%, 1 µM produced 94% inhibition, the inhibition at 0.1 µM was found to be 89% and at 0.3 µM the inhibition was 90%. In test [1], this molecule had an inhibition at 0.03 µM of 70%. Moreover, in test [2], the Kb was 12.6 nM.

Take `CCCc1c(COc2ccc(C(C)(C)c3nnn[nH]3)cc2)ccc(C(C)=O)c1O` [Example 37, 5-[4-(4-Acetyl-3-hydroxy-2-propylbenzyloxy)-α,α-dimethylbenzyl]-tetrazole]: in test [1], the inhibition at 0.1 µM was determined as 81%, at 0.3 µM the inhibition was 90% and the inhibition at 0.03 µM amounted to 56%. Besides, the Kb in test [2] is 17.4 nM.

In test [1], `CCCc1c(CSCc2ccc(-c3nnn[nH]3)cc2)ccc(C(C)=O)c1O` [Example 38, 5-[4-(4-Acetyl-3-hydroxy-2-propylbenzylthiomethyl)phenyl]-tetrazole] showed an inhibition at 0.1 µM of 29% and an inhibition at 0.3 µM of 51%. Also, the Kb in test [2] is 316 nM.

Turning to `CC(=O)c1ccc(COc2ccc(-c3nnn[nH]3)cc2)c(C)c1O` [Example 39, 5-[4-(4-Acetyl-3-hydroxy-2-methylbenzyloxy)phenyl]-tetrazole], in test [1], the inhibition at 1 µM came out at 90% and the inhibition at 0.3 µM is 70%. In addition, the Kb in test [2] is 91.2 nM.

In test [1], `CCCc1c(CSc2ccc(-c3nnn[nH]3)cc2)ccc(C(C)=O)c1O` [Example 40, 5-[4-(4 -Acetyl-3-hydroxy-2-propylbenzylthio)phenyl]-tetrazole] registered an inhibition at 0.1 µM of 79% and an inhibition at 0.03 µM of 58%. Also, in test [2], the antagonist dissociation constant (Kb) was 20 nM.

Regarding `CCCc1c(COc2ccc3cc(-c4nn[nH]n4)ccc3c2)ccc(C(C)=O)c1O` [Example 41, 5-[2-(6-[4-Acetyl-3-hydroxy-2-propylbenzyloxy]naphthyl)]-tetrazole], in test [1], the inhibition at 0.01 µM was 46% and testing at 0.1 µM gave an inhibition of 90%. The molecule also had a Kb in test [2] of 12.3 nM.

On to `CC(=O)c1ccc(COc2ccc(Cc3nnn[nH]3)cc2)c(CC(C)C)c1O` [Example 42, 5-(4-[4-Acetyl-3-hydroxy-2-(2-methylpropyl)benzyloxy]benzyl)-tetrazole], for which, in test [1], the inhibition at 0.01 µM came out at 34%, at 0.1 µM the inhibition was 86%, the inhibition at 0.3 µM came to 88% and 0.03 µM produced 60% inhibition. The molecule further gave an antagonist dissociation constant (Kb) in test [2] of 20 nM.

As for `CCCc1c(CNc2ccc(Cc3nnn[nH]3)cc2)ccc(C(C)=O)c1O` [Example 43, 5-[4-(4-Acetyl-3-hydroxy-2-propylbenzylamino)benzyl]tetrazole], in test [1], the inhibition at 0.1 µM came to 77% and the inhibition at 0.03 µM turned out to be 49%. Besides, in test [2], the Kb is 31.6 nM.

In test [1], `CCc1c(COc2ccc(Cc3nnn[nH]3)cc2)ccc(C(C)=O)c1O` [Example 44, 5-[4-(4-Acetyl-3-hydroxy-2-ethylbenzyloxy)benzyl)-tetrazole] yielded an inhibition at 0.01 µM of 41%, an inhibition at 0.1 µM of 88% and an inhibition at 0.03 µM of 78%. The molecule further had a Kb in test [2] of 12.6 nM.

For `CCCc1c(C=Cc2ccc(-c3nn[nH]n3)cc2)ccc(C(C)=O)c1O` [Example 45, 5-[4-(2-[4-Acetyl-3-hydroxy-2-propylphenyl]ethenyl)phenyl]-tetrazole], in test [1], 1 µM produced 74% inhibition and testing at 0.3 µM gave an inhibition of 57%. Moreover, the Kb in test [2] was 186 nM.

As for `CCCc1c(CNc2ccc(C(=O)O)cc2)ccc(C(C)=O)c1O` [Example 47, 4-(4-Acetyl-3-hydroxy-2-propylbenzylamino)benzoic acid], in test [1], at 1 µM the inhibition was 70% and the inhibition at 0.3 µM stood at 36%. In test [2], this molecule had a Kb of 490 nM.

As to `CCCc1c(COCCCCc2nnn[nH]2)ccc(C(C)=O)c1O` [Example 49, 5-[4-(4-Acetyl-3-hydroxy-2-propylbenzyloxy)butyl]-tetrazole], in test [1], 1 µM produced 64% inhibition and the inhibition at 0.3 µM was 36%. The Kb in test [2] was 550 nM.

In test [1], `CCCc1c(COCCOc2ccc(-c3nnn[nH]3)cc2)ccc(C(C)=O)c1O` [Example 52, 5-(4-[2-(4-Acetyl-3-hydroxy-2-propylbenzyloxy)ethoxy]phenyl)-tetrazole] showed an inhibition at 0.1 µM of 67%, an inhibition at 0.3 µM of 83% and an inhibition at 0.03 µM of 39%. In test [2], this molecule gave an antagonist equilibrium constant (Kb) of 49 nM.

In test [1], `CCCc1c(C[S+]([O-])Cc2ccc(-c3nnn[nH]3)cc2)ccc(C(C)=O)c1O` (stereo not drawn) [Example 53, 5-[4-(4-Acetyl-3-hydroxy-2-propylbenzylsulfinylmethyl)phenyl]-tetrazole] came in with an inhibition at 0.1 µM of 14% and an inhibition at 0.3 µM of 4%. In test [1] (Compound concentration 3 × 10^-6 M), this molecule returned an inhibition at 3 µM of 39%. In test [2], this molecule gave an antagonist equilibrium constant (Kb) of 6310 nM.
